Columns and labels:
MAO-B [1] = target: T1, MAO-B (Rattus norvegicus, UniProt P19643); assay: Inhibition of MAO in vitro, rat brain mitochondria, 14C phenethylamine (PEA) as substrate; format: biochemical; settings: ratio of the inhibitory activity against MAO-B versus MAO-A
T1 construct: in partially purified mitochondria from rat brain; from tissue; host or cells: rat brain mitochondria (partially purified, differential centrifugation)
T1 sequence (P19643 1-520): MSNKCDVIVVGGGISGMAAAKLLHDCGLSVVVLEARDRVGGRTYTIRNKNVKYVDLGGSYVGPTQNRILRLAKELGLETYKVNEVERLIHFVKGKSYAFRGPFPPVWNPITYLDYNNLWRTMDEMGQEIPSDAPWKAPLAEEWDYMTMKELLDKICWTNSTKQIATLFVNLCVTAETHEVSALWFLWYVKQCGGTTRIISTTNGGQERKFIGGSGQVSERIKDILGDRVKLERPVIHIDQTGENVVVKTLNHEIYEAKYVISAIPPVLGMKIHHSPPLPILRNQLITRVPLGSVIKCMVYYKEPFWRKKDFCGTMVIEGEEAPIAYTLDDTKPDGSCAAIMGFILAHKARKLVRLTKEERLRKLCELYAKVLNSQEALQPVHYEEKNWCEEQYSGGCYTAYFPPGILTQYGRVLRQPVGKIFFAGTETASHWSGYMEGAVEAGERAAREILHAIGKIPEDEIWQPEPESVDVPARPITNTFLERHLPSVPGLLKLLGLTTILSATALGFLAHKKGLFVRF
Text: The ability of a compound of structure 1 to inhibit MAO can be determined in vitro by the method of A. Christmas et al., Br. J. Pharmacol. 45, 490 (1972) in partially purified mitochondria from rat brain using ¹⁴C o-tyramine or ¹⁴C phenethylamine and ¹⁴C 5-HT as the substrate. The MAO inhibitory activity of a compound is expressed as the "IC₅₀" value, which is the molar concentration required to produce 50% inhibition of the enzyme. The IC₅₀ values for certain compounds of structure 1 were determined using the above-described method, and the results are set forth in Table I.
The selectivity of a compound of structure 1 with respect to inhibition of MAO-A and MAO-B can be determined by preparing mitochondria from rat brain by homogenation in phosphate buffer (0.1 M, pH 7.2) followed by differential centrifugation. The mitochondria are suspended in the same buffer, the test compound is added at the desired concentration, and the system is incubated. At different time intervals, aliquots are taken and MAO activity is measured using ¹⁴C 5-hydroxytryptamine (5HT; a preferred substrate for MAO-A) or 14C-phenethylamine (PEA; a preferred substrate for MAO-B) as the substrates. The selectivity is expressed as the ratio of the inhibitory activity against MAO-B versus the inhibitory activity against MAO-A. (Zreika, McDonald, Bey, Palfreyman, J. Neurochem., 43, 448-454 (1984)).

MAO-B [2] = assay: Inhibition of MAO ex vivo, brain mitochondrial fraction after oral dosing, 14C phenethylamine as substrate; format: in vivo; settings: rats, orally (po)
Description: (§1) The ability of a compound of formula 1 to inhibit MAO can be determined ex vivo by the following procedure:
(§2) The test compound is administered orally (po) to rats and the animals are killed at various times after treatment. The brain is removed and a mitochondrial fraction, described in Example 12 is prepared. MAO activity is determined using ¹⁴C p-tyramine, as the substrate. Selectivity can be determined by repeating the above-described test using either ¹⁴C 5-hydroxytryptamine (for MAO-A) or ¹⁴C phenethylamine (for MAO-B) as the substrate for determining the % inhibition.

MAO-A = assay: Inhibition of MAO ex vivo, brain mitochondrial fraction after oral dosing, 14C 5-hydroxytryptamine as substrate; format: in vivo; settings: rats, orally (po)
Description: as §1, §2

SMILES	MAO B SELECTIVITY (MAO-B [1])	ED50 for MAO-B inhibition (MAO-B [2])	ED50 for MAO-A inhibition (MAO-A)
CCCCCC/C(=C\F)CN [(E)-2-Hexyl-3-fluoroallylamine]	24	–	–
CC(C)C/C(=C\F)CN [(E)-2-Isobutyl-3-fluoroallylamine]	77	0.05 mg/kg	0.8 mg/kg
CCCCCCCCCCC/C(=C\F)CN [(E)-2-Undecyl-3-fluoroallylamine]	1.5	–	–
CCC(C)/C(=C\F)CN (stereo not drawn) [(E)-2-sec-Butyl-3-fluoroallylamine]	24	–	–
CCCC/C(=C\F)CN [(E)-2-Butyl-3-fluoroallylamine]	55	–	–
CC(C)/C(=C\F)CN [(E)-2-Isopropyl-3-fluoroallylamine]	68	–	–
CCCCCCC/C(=C\F)CN [(E)-2-Heptyl-3-fluoroallylamine]	13	–	–

From patent EP0224924B1, “Non-aromatic fluorallylamine MAO inhibitors” (MERRELL DOW PHARMACEUTICALS INC., priority 1985, dated 1987)
